Source: ChEMBL document CHEMBL5360625, “Design, Synthesis, and Antitumor Activity Evaluation of 2-Arylmethoxy-4-(2,2'-dihalogen-substituted biphenyl-3-ylmethoxy) Benzylamine Derivatives as Potent PD-1/PD-L1 Inhibitors” (J Med Chem, 2023)
Activity calls are given as the source filed them. No cut-off for these calls is given here.

Columns and labels:
[1] = Bioavailability in Sprague-Dawley rat at 40 mg/kg, IG measured upto 48 hrs by LC-MS/MS analysis; assay type: ADME, organism-based; details: in vivo, po
[2] = Tmax in Sprague-Dawley rat at 8 mg/kg, iv measured upto 48 hrs by LC-MS/MS analysis; assay type: ADME, organism-based; details: in vivo
[3] = AUC (0 to infinity) in Sprague-Dawley rat at 40 mg/kg, IG measured upto 48 hrs by LC-MS/MS analysis; assay type: ADME, organism-based; design: time < 48 hrs, dose 40 mg/kg, route ig; details: Sprague-Dawley, in vivo, po
[4] = Nephrotoxicity in PD-1/PD-L1 humanized C57/BL6 mouse implanted with mouse MC38 cells assessed as effect on urea level in serum at 50 mg/kg, IG qd administered on day 5 measured after 2 weeks; assay type: toxicity, organism-based, MC-38; details: in vivo, po, 336 h
MC-38 [5] = assay: Immunomodulatory activity in mouse MC38 cells implanted in PD-1/PD-L1 humanized C57/BL6 mouse assessed as increase in CXCR3 mRNA expression level in tumor at 50 mg/kg, IG qd administered on day 5 measured after 2 weeks by RT-PCR analysis; assay type: functional, organism-based
[6] = AUC (0 to infinity) in Sprague-Dawley rat at 8 mg/kg, iv measured upto 48 hrs by LC-MS/MS analysis; assay type: ADME, organism-based; design: time < 48 hrs, dose 8 mg/kg, route iv; details: in vivo
[7] = Half life in Sprague-Dawley rat at 40 mg/kg, IG measured upto 48 hrs by LC-MS/MS analysis; assay type: ADME, organism-based; details: Sprague-Dawley, in vivo, po
MC-38 [8] = assay: Immunomodulatory activity in mouse MC38 cells implanted in PD-1/PD-L1 humanized C57/BL6 mouse assessed as increase in CXCL9 mRNA expression level in tumor at 50 mg/kg, IG qd administered on day 5 measured after 2 weeks by RT-PCR analysis; assay type: functional, organism-based
[9] = Apparent volume of distribution in Sprague-Dawley rat at 10 mg/kg, ip measured upto 48 hrs by LC-MS/MS analysis; assay type: ADME, organism-based; details: in vivo
[10] = Half life in Sprague-Dawley rat at 8 mg/kg, iv measured upto 48 hrs by LC-MS/MS analysis; assay type: ADME, organism-based; details: Sprague-Dawley, in vivo
[11] = Cmax in Sprague-Dawley rat at 8 mg/kg, iv measured upto 48 hrs by LC-MS/MS analysis; assay type: ADME, organism-based; design: time < 48 hrs, dose 8 mg/kg, route iv; details: in vivo
[12] = Nephrotoxicity in PD-1/PD-L1 humanized C57/BL6 mouse implanted with mouse MC38 cells assessed as effect on creatinine level in serum at 50 mg/kg, IG qd administered on day 5 measured after 2 weeks; assay type: toxicity, organism-based, MC-38; details: in vivo, po, 336 h
[13] = Cmax in Sprague-Dawley rat at 10 mg/kg, ip measured upto 48 hrs by LC-MS/MS analysis; assay type: ADME, organism-based; design: time < 48 hrs, dose 10 mg/kg, route ip; details: in vivo
[14] = Apparent volume of distribution in Sprague-Dawley rat at 40 mg/kg, IG measured upto 48 hrs by LC-MS/MS analysis; assay type: ADME, organism-based; details: in vivo, po
[15] = Toxicity in PD-1/PD-L1 humanized C57/BL6 mouse implanted with mouse MC38 cells assessed as morphological change in spleen at 50 mg/kg, IG qd administered on day 5 measured after 2 weeks by hematoxylin-eosin staining based inverted fluorescent microscopic analysis; assay type: organism-based, MC-38; details: in vivo, po, 336 h
[16] = Hepatotoxicity in PD-1/PD-L1 humanized C57/BL6 mouse implanted with mouse MC38 cells assessed as effect on ALT level in serum at 50 mg/kg, IG qd administered on day 5 measured after 2 weeks; assay type: toxicity, organism-based, MC-38; details: in vivo, po, 336 h
MC-38 [17] = assay: Antitumor activity against mouse MC38 cells implanted in PD-1/PD-L1 humanized C57/BL6 mouse assessed as increase in CD8 positive CD4 positive ratio in tumor at 50 mg/kg, IG qd administered on day 5 measured after 2 weeks by flow cytometry analysis; assay type: functional, organism-based
[18] = Clearance in Sprague-Dawley rat at 8 mg/kg, iv measured upto 48 hrs by LC-MS/MS analysis; assay type: ADME, organism-based; details: Sprague-Dawley, in vivo
MC-38 [19] = assay: Antitumor activity against mouse MC38 cells expressing human PD-L1 protein assessed as reduction in cell viability measured after 48 hrs by CCK-8 assay; assay type: functional, cell-based; details: MC-38, 48 h

N#Cc1cncc(COc2cc(OCc3cccc(-c4ccccc4F)c3Cl)ccc2CNCCO)c1
bioavailability [1]: 114% | Tmax [2]: 4.8 min | AUC(0-inf) [3]: 65500 ng·h/mL | Activity [4]: Non-Toxic | Activity (MC-38 [5]): Active | AUC(0-inf) [6]: 13400 ng·h/mL | half-life [7]: 103 min | Activity (MC-38 [8]): Active | Vz [9]: 2.94 L/kg | half-life [10]: 59.4 min | Cmax [11]: 6230 ng/mL | Activity [12]: Non-Toxic | Cmax [13]: 4160 ng/mL | Vz [14]: 1.8 L/kg | Activity [15]: Non-Toxic | Activity [16]: Non-Toxic | Activity (MC-38 [17]): Active | clearance [18]: 10 mL/min/kg | IC50 (MC-38 [19]): > 8 µM
